For data set [1], the system named is reserpinized rat or mouse. The data set can be described thus: Reserpine-induced akinesia in activity meters. Format: in vivo. Conditions: 24 h after reserpine. How it is done:
A typical animal model is the reserpinized rat or mouse (e.g. M.S. Starr and B.S. Starr, J. Neural Transm. - Park. Dis. Dement. Sect., 1994; 7: 133-142; M. Gossel et al., J. Neural Transm. - Park. Dis. Dement. Sect., 1995; 10: 27-39; N.R. Hughes et al., Mov. Disord., 1998; 13: 228-233). Reserpine is a potent depleter of monoamines and produces nearly complete akinesia in both species. Prominent 24 h after application, the distance travelled and the time active is nearly zero as measured in conventional activity meters.

Data set [2] relates to oxotremorine-induced tremor. The data set can be described thus: Oxotremorine-induced tremor, rating scale. It is filed as in vivo. How it is done:
A typical animal model for drug-induced tremors is the oxotremorine-induced tremor (e.g. H. Hallberg and O. Almgren, Acta Physiol. Scand., 1987; 129: 407-13; J.G. Clement and W.R. Dyck, J. Pharmacol. Meth., 1989; 22: 25-36). Oxotremorine induces tremor which is measured by a rating scale. Trans-4-[4-(3-chloro-4-methoxybenzylamino)-benzothieno-[2,3-d]pyrimidin-2-yl]cyclohexanecarboxylic acid or a physiologically acceptable salt thereof inhibit oxotremorine-induced tremors.

Data set [3] relates to systemic 3-nitropropionic acid (3-NP) model in rats. The data set can be described thus: Systemic 3-nitropropionic acid (3-NP) model, nocturnal activity. It is filed as in vivo. How it is done: A typical animal model is the systemic 3-nitropropionic acid (3-NP) model in rats according to C.V. Borlongan et al., Brain Res., 1995; 697: 254-257. Rats are treated with injections of the selective striatal neurotoxin 3-NP i.p. every fourth day (C.V. Borlongan et al., Brain Res. Protocols, 1997; 1: 253-257). After two injections of 3-NP, rats display nocturnal hyperactivity reflecting symptoms of early Huntington's disease, whereas rats treated with four injections of 3-NP display nocturnal akinesia (hypoactivity) reflecting symptoms of late Huntington's disease. Nocturnal activity is automatically measured in conventional acitivity cages by infrared beams. Trans-4-[4-(3-chloro-4-methoxybenzylamino)-benzothieno-[2,3-d]pyrimidin-2-yl]cyclohexanecarboxylic acid or a physiologically acceptable salt thereof reduce both the nocturnal hyperactivity and akinesia.

The subject of the next data set is mutant dystonic hamster. The data set can be described thus: Mutant dystonic hamster, scored dystonic attacks. It is filed as in vivo. Particulars: scoring system. An excerpt:
A typical animal model is the mutant dystonic hamster according to A. Richter and W. Löscher, Prog. Neurobiol. 1998; 54: 633-677. In this genetically dystonic hamsters, dystonic attacks are provoked by taking the animal from the home cage and placing it on a balance. The dystonic syndrome consists of a sequence of abnormal movements, and the severity of the single symptoms is rated by a scoring system.

Data set [4] deals with Parkinsonian cynomolgus monkey. The data set can be described thus: Adverse effects of long-term l-dopa treatment in the MPTP Parkinsonian cynomolgus monkey. Particulars: MPTP monkeys chronically treated with l-dopa. It is filed as in vivo. On the procedure: Treatment of adverse effects of conventional anti-Parkinsonian drugs as defined above are determined in a modification of the animal model of the Parkinsonian cynomolgus monkey according to P.J. Blanchet et al., Exp. Neurology 1998; 153: 214-222. Monkeys render parkinsonian by repeated injections of 1-methyl-4-phenyl-1,2,3,6-tetrahydropyridine (MPTP). The Parkinsonian monkeys are chronically treated with the standard I-dopa therapy according to P.J. Blanchet et al., Mov. Disord., 1998; 13: 798-802. Longterm treatment with I-dopa induces extrapyramidal motor side effects and psychotic states which are both qualitatively and quantitatively, assessed by the Abnormal Involuntary Movement Scale (P.J. Blanchet et al., Mov. Disord. 1998; 13: 798-802) for different body parts (face, neck, trunk, each limb) and by rating for psychotic states by observing the monkey's attention, reactivity and mobility. Trans-4-[4-(3-chloro-4-methoxybenzylamino)-benzothieno-[2,3-d]pyrimidin-2-yl]cyclohexane-carboxylic acid reduced overall choreiform dyskinesias and dystonic dyskinesias as well as psychotic states.

Data set [5] relates to Campus Syndrome in the Pietrain pig. The data set can be described thus: Campus Syndrome tremor model, accelerometric recording. Format: in vivo. An excerpt: Typical genetic models in mutant animals are the Campus Syndrome in the Pietrain pig according to A. Richter et al. (Exp. Neurology, 1995; 134: 205-213) or the Weaver mutant mouse according to J.R. Simon and B. Ghetti (Mol. Neurobiol., 1994; 9: 183-189). In the Campus Syndrome model, these mutant pigs show a high-frequency tremor when standing and during locomotion, but not while lying at rest. Assessment of tremor is made by accelerometric recording. In the Weaver mutant mouse, degenerative cerebellar atrophy is fould in association with tremor, gait instability, and toppling over the sides after a few steps.
Trans-4-[4-(3-chloro-4-methoxybenzylamino)-benzothieno-[2,3-d]pyrimidin-2-yl]cyclohexanecarboxylic acid or a physiologically acceptable salt thereof improve the Campus Syndrome in the Pietrain pig, i.e. reduce disabling tremor when standing and during locomotion, and enhance locomotor activity in the Weaver mutant mouse.

The test system of data set [6] is striatonigral degeneration approach in the rat. The data set can be described thus: Striatonigral degeneration model (6-hydroxydopamine plus quinolinic acid), turning behavior. Format: in vivo. Particulars: automated recorder. An excerpt:
Another more recent animal model is the striatonigral degeneration approach in the rat according to G.K. Wenning et al., J. Neural Transm. Suppl., 1999; 55: 103-113. Rats receive an unilateral injection of 6-hydroxydopamine into the left medial forebrain bundle followed by an injection of quinolinic acid into the ipsilateral striatum inducing nigrostriatal degeneration. The degeneration results in turning behavior to a challenge with dopaminomimetics such as apomorphine or amphetamine. Turning behavior is measured by an automated recorder.

The test system of data set [7] is neuroleptics sensitized monkey. The data set can be described thus: Neuroleptics sensitized monkey, haloperidol challenge. Particulars: given after haloperidol challenge; scoring system. It is filed as in vivo. An excerpt: Another typical animal model is the neuroleptics sensitized monkey according to D.E. Casey, Psychopharmacology, 1996; 124: 134-140. Monkeys treated repeatedly with conventional neuroleptics are highly sensitive to a subsequent challenge dose of neuroleptic drugs. When challenged, the monkeys immediately show extrapyramidal motor side effects such as dystonia, dyskinesias, akathisia, and bradykinesia which are rated by a scoring system. The conventional neuroleptic drug haloperidol is given as a challenge.

In another data set the test system is catalepsy. The data set can be described thus: Ability of a drug to induce catalepsy (extrapyramidal motor side effects). It is filed as in vivo, rat. Conditions: measured in e.g. rodents by the ability of a drug to induce catalepsy. How it is done:
Extrapyramidal motor side effects in e.g. rodents are measured by the ability of a drug to induce catalepsy. Catalepsy is defined as a state where an animal continues to remain in an unnormal (nonphysiological 'uncomfortable') posture for a long time (e.g.: M.E. Stanley and S.D. Glick, Neuropharmacology, 1996; 15: 393-394; C.J.E. Niemegeers and P. Janssen, Life Sci., 1979, […]). For example, if a hindpaw of a rat is placed on an elevated level, e.g. a platform elevated 3 cm above ground level, a normal rat immediately withdraws the hindpaw from the platform to the ground level. A cataleptic rat remains in this unnatural posture even for minutes.

Setting [8] is: Abnormal Involuntary Movement Scale.

Take `COc1ccc(CNc2nc([C@H]3CC[C@H](C(=O)O)CC3)nc3sc4ccccc4c23)cc1Cl` [trans-4-[4-(3-chloro-4-methoxybenzylamino)-benzothieno-[2,3-d]pyrimidin-2-yl]cyclohexanecarboxylic acid]: the akinesia entry in data set [1] is given as “dose-dependently reduced”. Besides, the “distance travelled and time active” value in data set [1] (conventional activity meters) was “restored distance travelled and time active to about the level of normal animals”. In data set [2], the oxotremorine-induced tremors result is “inhibit”. The nocturnal akinesia entry in data set [3] (after four injections of 3-NP (late Huntington's disease)) is recorded as “reduce”. In addition, the nocturnal hyperactivity entry in data set [3] (after two injections of 3-NP (early Huntington's disease)) is recorded as “reduce”. The “severity of dystonic symptoms” value with mutant dystonic hamster is “dose-dependently reduce”. Moreover, in [4] (setting [8]), the dystonic dyskinesias entry was “reduced” and the overall choreiform dyskinesias entry is on record as “reduced”. The psychotic states result in data set [4] (rating of attention, reactivity and mobility) is reported as “reduced”. For the same compound, the “disabling tremor when standing and during locomotion” value in [5] was “reduce”. In data set [6], the “Turning behavior induced by apomorphine or amphetamine” value was “dose-dependently antagonized”. In addition, the “extrapyramidal motor side effects” value in data set [7] is “dose-dependently reduce”. Further, the “liability to induce extrapyramidal side effects” value in the data set with catalepsy is given as “extremely low liability to induce extrapyramidal side effects”.

The values above are taken from patent publication EP1543832A2, “Use of trans-4[4-(3-chloro-4-methoxy-benzylamino) benzothieno[2,3-d]pyrimidin-2-yl]-cyclohexanecarboxylic acid in the treatment of extrapyramidal movement disorders” (MERCK PATENT GmbH, priority 2003, dated 2005).
